Assay results reported in PMC5290327, “SC83288 is a clinical development candidate for the treatment of severe malaria” (Nature Communications, 2017).
Values after ≈ are worked out from the molar mass of the structure shown. Like-named read-outs stand apart in the source and are kept apart here.

Experiments:
P. falciparum strain 3D7 = experiment: Growth inhibition assay; assay type: cell-based; details: Plasmodium falciparum
P. falciparum strain Dd2 = experiment: Growth inhibition assay, asexual blood stages; assay type: cell-based, Plasmodium falciparum
[1] = tested on: P. falciparum strain Thai19; experiment: Growth inhibition assay; assay type: cell-based; details: Plasmodium falciparum
P. falciparum strain K1 = experiment: microbe, parasite or virus in culture; assay type: cell-based; details: Plasmodium falciparum
[2] = tested on: P. falciparum strain FCR3; experiment: Growth inhibition assay; assay type: cell-based; details: Plasmodium falciparum
P. falciparum strain 7G8 = experiment: microbe, parasite or virus in culture; assay type: cell-based; details: Plasmodium falciparum
P. falciparum strain D10 = experiment: Growth inhibition assay; assay type: cell-based; details: Plasmodium falciparum
[3] = tested on: Dd2 P. falciparum parasites; experiment: In vitro parasite reduction ratio assay (Sanz protocol); assay type: cell-based, Plasmodium falciparum
[4] = In vitro metabolism in liver microsomes; details: Dog
[5] = In vitro metabolism in liver microsomes; details: Human
[6] = In vitro metabolism in liver microsomes; details: Mouse
[7] = In vitro metabolism in liver microsomes; details: Monkey
[8] = In vitro metabolism in liver microsomes; details: Rat
Solubility in water = details: for Solubility in H2O: Supplementary Table 2
Plasmodium vinckei = experiment: Rodent malaria model; assay type: in vivo; details: P. vinckei
Source text: The two SC compounds were also active in the Plasmodium vinckei rodent malaria model system.

CACO 2 cells = experiment: Permeability assay; assay type: in vitro ADME; details: Supplementary Table 2
Description: The study was conducted by Cyprotex (Macclesfield, United Kingdom). CACO 2 cells (Sigma-Aldrich, catalogue: 86010202) were seeded on Millipore Millicell plates and formed a confluent monolayer over 20 days before the experiment. On day 20, the tested compounds at a final concentration of 10 μM were added to the apical side of the membrane. The transport of the compound across the monolayer was monitored over a 2 h period by liquid chromatography (LC)–MS/MS quantification. The permeability coefficient (Papp) was calculated from the following equation: [drawing 1] , where dQ/dt is the rate of permeation of the drug across the cells, C0 the donor compartment concentration at time zero and A the area of the cell monolayer. C0 was obtained from analysis of the dosing solution at the start of the experiment.

[9] = Plasmodium falciparum, DD2, strain Dd2, Supplementary Table 3
[10] = major metabolite, read-out: IC50, antiplasmodial activity in vitro
[11] = Supplementary Table 2, read-out: In vitro IC50
[12] = Supplementary Table 8, read-out: In vitro IC50

CCN(CC)Cc1cc(Nc2ccnc3cc(Cl)ccc23)ccc1O [Amodiaquin]
IC50 (P. falciparum strain 3D7): 8 ± 1 nM
IC50 (P. falciparum strain Dd2; [9]): 7 ± 1 nM
IC50 [1]: 9 ± 1 nM
IC50 (P. falciparum strain K1): 9 ± 1 nM
IC50 [2]: 8 ± 0.4 nM
IC50 (P. falciparum strain 7G8): 7 ± 2 nM
IC50 (P. falciparum strain D10): 7 ± 2 nM

C[C@@H]1CC[C@H]2[C@@H](C)C(=O)O[C@@H]3O[C@@]4(C)CC[C@@H]1[C@]32OO4 [Artemisinin]
IC50 (P. falciparum strain 3D7): 8 ± 0.3 nM
IC50 (P. falciparum strain Dd2; [9]): 2 ± 0.1 nM
IC50 [1]: 3 ± 1 nM
IC50 (P. falciparum strain K1): 3 ± 1 nM
In vitro PCT99.9% ([3]; 10 times IC50, Dd2): 21 ± 3 h
In vitro lag phase ([3]; 10 times IC50, Dd2): zero
In vitro logPRR ([3]; 10 times IC50, Dd2, over 48 h): 4.5±2
IC50 [2]: 5 ± 1 nM
IC50 (P. falciparum strain 7G8): 1 ± 0.3 nM
IC50 (P. falciparum strain D10): 9 ± 0.4 nM

CCN(CC)CCCC(C)Nc1ccnc2cc(Cl)ccc12 (centres unmarked) [Chloroquine]
IC50 (P. falciparum strain 3D7): 3 nM
IC50 [1]: 74 ± 17 nM
IC50 (P. falciparum strain K1): 70 ± 14 nM
IC50 [2]: 25 ± 40 nM
IC50 (P. falciparum strain 7G8): 30 ± 70 nM
IC50 (P. falciparum strain D10): 11 ± 30 nM

OC(c1cc(C(F)(F)F)nc2c(C(F)(F)F)cccc12)C1CCCCN1 (centres unmarked) [Mefloquine]
IC50 (P. falciparum strain 3D7): 0.04 ± 0.1 nM
IC50 (P. falciparum strain Dd2; [9]): 0.04 ± 0.1 nM
IC50 [1]: 0.01 nM
IC50 (P. falciparum strain K1): 0.01 nM
IC50 [2]: 0.04 nM
IC50 (P. falciparum strain 7G8): 0.2 ± 0.1 nM
IC50 (P. falciparum strain D10): 0.01 nM

N=C(c1cccc(NC(=O)Nc2ccc(S(=O)(=O)NCc3ccc(S(N)(=O)=O)cc3)cc2)c1)N1CCNCC1 [Metabolite 1]
IC50 (P. falciparum strain Dd2; [10]): 65 nM
Share of metabolite from the total combined metabolite peak area ([4]; SC81458 metabolites): 63.6%
Share of metabolite from the total combined metabolite peak area ([4]; SC83288 metabolites): 87.3%
Share of metabolite from the total combined metabolite peak area ([5]; SC81458 metabolites): 7%
Share of metabolite from the total combined metabolite peak area ([5]; SC83288 metabolites): 13.3%
Share of metabolite from the total combined metabolite peak area ([6]; SC81458 metabolites): 22.2%
Share of metabolite from the total combined metabolite peak area ([6]; SC83288 metabolites): 5%
Share of metabolite from the total combined metabolite peak area ([7]; SC81458 metabolites): 10.5%
Share of metabolite from the total combined metabolite peak area ([7]; SC83288 metabolites): 16.2%
Share of metabolite from the total combined metabolite peak area ([8]; SC81458 metabolites): 27.8%
Share of metabolite from the total combined metabolite peak area ([8]; SC83288 metabolites): 19.7%

CCc1nc(N)nc(N)c1-c1ccc(Cl)cc1 [Pyrimethamine]
IC50 (P. falciparum strain 3D7): 16 ± 3 nM
IC50 [1]: > 15000 nM
IC50 (P. falciparum strain K1): > 15000 nM
IC50 [2]: 31 ± 8 nM
IC50 (P. falciparum strain 7G8): > 15000 nM
IC50 (P. falciparum strain D10): 11 ± 2 nM

C=C[C@H]1C[N@@]2CC[C@H]1C[C@@H]2[C@@H](O)c1ccnc2ccc(OC)cc12 [Quinidine]
IC50 (P. falciparum strain 3D7): 14 ± 1 nM
IC50 (P. falciparum strain Dd2; [9]): 15 ± 1 nM
IC50 [1]: 22 ± 5 nM
IC50 (P. falciparum strain K1): 12 ± 3 nM
IC50 [2]: 32 ± 6 nM
IC50 (P. falciparum strain 7G8): 16 ± 4 nM
IC50 (P. falciparum strain D10): 16 ± 1 nM

C=C[C@H]1C[N@@]2CC[C@H]1C[C@H]2[C@H](O)c1ccnc2ccc(OC)cc12 [Quinine]
IC50 (P. falciparum strain 3D7): 14 ± 20 nM
IC50 (P. falciparum strain Dd2; [9]): 100 ± 10 nM
IC50 [1]: 62 ± 10 nM
IC50 (P. falciparum strain K1): 46 ± 40 nM
IC50 [2]: 182 ± 27 nM
IC50 (P. falciparum strain 7G8): 70 ± 17 nM
IC50 (P. falciparum strain D10): 58 ± 50 nM

N=C(N)c1cccc(NC(=O)Nc2ccc(S(=O)(=O)c3ccc(Br)cc3)cc2)c1 [SC48443]
IC50 (P. falciparum strain Dd2; [11]): 63.9 nM
Solubility in H2O (Solubility in water): 100 µg/mL (≈ 211 µM)

N=C(c1cccc(NC(=O)Nc2ccc(S(=O)(=O)c3ccc(Br)cc3)cc2)c1)N1CCC(O)CC1 [SC77215]
IC50 (P. falciparum strain Dd2; [12]): 68 nM
Outcome: decrease of parasitemia (Plasmodium vinckei; 20 mg kg-1 i.p. 1x4 days): 45%

N=C(c1cccc(NC(=O)Nc2ccc(S(=O)(=O)NCc3ccc(S(N)(=O)=O)cc3)cc2)c1)N1CCC(O)CC1 [SC77225]
IC50 (P. falciparum strain Dd2; [11]): 165 nM
Papp (CACO 2 cells): 0.38 10-6 cm s-1

N=C(c1cccc(NC(=O)Nc2ccc(S(=O)(=O)NCc3ccc(S(N)(=O)=O)cc3)cc2)c1)N1CCN(CCO)CC1 [SC81452]
IC50 (P. falciparum strain Dd2; [11]): 100 nM
Solubility in H2O (Solubility in water): 32 µg/mL (≈ 52 µM)

CCCCN1CCN(C(=N)c2cccc(NC(=O)Nc3ccc(S(N)(=O)=O)cc3)c2)CC1 [SC81458 M5]
Share of metabolite from the total combined metabolite peak area ([4]; SC81458 metabolites): 3.1%
Share of metabolite from the total combined metabolite peak area ([5]; SC81458 metabolites): 51.4%
Share of metabolite from the total combined metabolite peak area ([6]; SC81458 metabolites): 49%
Share of metabolite from the total combined metabolite peak area ([7]; SC81458 metabolites): 0.1%
Share of metabolite from the total combined metabolite peak area ([8]; SC81458 metabolites): 23.3%

C=CNC(=N)c1cccc(NC(=O)Nc2ccc(S(=O)(=O)NCc3ccc(S(N)(=O)=O)cc3)cc2)c1 [SC81458 M30]
Share of metabolite from the total combined metabolite peak area ([6]; SC81458 metabolites): 1.8%

N=C(c1cccc(NC(=O)Nc2ccc(S(=O)(=O)NCc3ccc(S(N)(=O)=O)cc3)cc2)c1)N1CCN(Cc2ccncc2)CC1 [SC82687]
IC50 (P. falciparum strain Dd2; [11]): 995 nM
Solubility in H2O (Solubility in water): 32 µg/mL (≈ 48.3 µM)

CCCCCN1CCN(C(=N)c2cccc(NC(=O)Nc3ccc(S(=O)(=O)NCc4ccc(S(N)(=O)=O)cc4)cc3)c2)CC1 [SC82833]
IC50 (P. falciparum strain Dd2; [11]): 13 nM
Solubility in H2O (Solubility in water): 100 µg/mL (≈ 156 µM)

CCN(CC)CCN(C)C(=N)c1cccc(NC(=O)Nc2ccc(S(=O)(=O)NCc3ccc(S(N)(=O)=O)cc3)cc2)c1 [SC82869]
IC50 (P. falciparum strain Dd2; [11]): 89 nM
Solubility in H2O (Solubility in water): 320 µg/mL (≈ 520 µM)

N=C(c1cccc(NC(=O)Nc2ccc(S(=O)(=O)NCc3ccc(S(N)(=O)=O)cc3)cc2)c1)N1CCNCC1 [SC82904]
IC50 (P. falciparum strain Dd2; [12]): 99 nM
Outcome (Plasmodium vinckei; 30 mg kg-1 i.p. 1x4 days): no complete clearance
Outcome: decrease of parasitemia (Plasmodium vinckei; 30 mg kg-1 i.p. 1x4 days): > 80%

CC(=O)N1CCN(C(=N)c2cccc(NC(=O)Nc3ccc(S(=O)(=O)NCc4ccc(S(N)(=O)=O)cc4)cc3)c2)CC1 [SC83287]
IC50 (P. falciparum strain Dd2; [11]): 5000 nM
Solubility in H2O (Solubility in water): 10 µg/mL (≈ 16.3 µM)

N=C(c1cccc(NC(=O)Nc2ccc(S(=O)(=O)NCc3ccc(S(N)(=O)=O)cc3)cc2)c1)N1CCN(C=O)CC1 [SC83288 M8]
Share of metabolite from the total combined metabolite peak area ([4]; SC83288 metabolites): 0.5%
Share of metabolite from the total combined metabolite peak area ([5]; SC83288 metabolites): 0.1%
Share of metabolite from the total combined metabolite peak area ([6]; SC83288 metabolites): 0.9%
Share of metabolite from the total combined metabolite peak area ([7]; SC83288 metabolites): 0.2%
Share of metabolite from the total combined metabolite peak area ([8]; SC83288 metabolites): 0.6%

COC(=O)N1CCN(C(=N)c2cccc(NC(=O)Nc3ccc(S(N)(=O)=O)cc3)c2)CC1 [SC83288 M9]
Share of metabolite from the total combined metabolite peak area ([4]; SC83288 metabolites): 4.8%
Share of metabolite from the total combined metabolite peak area ([5]; SC83288 metabolites): 82%
Share of metabolite from the total combined metabolite peak area ([6]; SC83288 metabolites): 69.9%
Share of metabolite from the total combined metabolite peak area ([7]; SC83288 metabolites): 72.3%
Share of metabolite from the total combined metabolite peak area ([8]; SC83288 metabolites): 69%

CCCCC(=O)N1CCN(C(=N)c2cccc(NC(=O)Nc3ccc(S(=O)(=O)NCc4ccc(S(N)(=O)=O)cc4)cc3)c2)CC1 [SC83290]
IC50 (P. falciparum strain Dd2; [11]): 40 nM
Outcome (Plasmodium vinckei; 30 mg kg-1 i.p. 1x4 days): no complete clearance
Outcome: decrease of parasitemia (Plasmodium vinckei; 30 mg kg-1 i.p. 1x4 days): > 90%
Solubility in H2O (Solubility in water): > 1000 µg/mL

N=C(N)c1cccc(NC(=O)Nc2cccc(C(=N)N)c2)c1 [amicarbalide, reference compound]
IC50 (P. falciparum strain Dd2; Plasmodium falciparum, DD2, read-out: In vitro IC50, Supplementary Table 2): 10 nM
solubility (Solubility in water; water): 100 µg/mL (≈ 337 µM)

N=C(c1cccc(NC(=O)Nc2ccc(S(N)(=O)=O)cc2)c1)N1CCNCC1 [metabolite 2]
IC50 (P. falciparum strain Dd2; [10]): 5000 nM
Share of metabolite from the total combined metabolite peak area ([4]; SC81458 metabolites): 1.6%
Share of metabolite from the total combined metabolite peak area ([5]; SC81458 metabolites): 4.7%
Share of metabolite from the total combined metabolite peak area ([5]; SC83288 metabolites): 0.3%
Share of metabolite from the total combined metabolite peak area ([7]; SC81458 metabolites): 7.6%
Share of metabolite from the total combined metabolite peak area ([7]; SC83288 metabolites): 5.4%
Share of metabolite from the total combined metabolite peak area ([8]; SC81458 metabolites): 0.3%
Share of metabolite from the total combined metabolite peak area ([8]; SC83288 metabolites): 0.3%
